Columns and labels:
[1] = target: T1, rBASIC (rat bile acid-sensitive ion channel) (Rattus norvegicus, UniProt Q9R0W5); assay: oocyte current recording, co-application; format: cell-based; details: 0.5 mM CDCA co-applied with 1.0 mM UDCA; CDCA not tested alone here
T1 sequence (Q9R0W5 1-495): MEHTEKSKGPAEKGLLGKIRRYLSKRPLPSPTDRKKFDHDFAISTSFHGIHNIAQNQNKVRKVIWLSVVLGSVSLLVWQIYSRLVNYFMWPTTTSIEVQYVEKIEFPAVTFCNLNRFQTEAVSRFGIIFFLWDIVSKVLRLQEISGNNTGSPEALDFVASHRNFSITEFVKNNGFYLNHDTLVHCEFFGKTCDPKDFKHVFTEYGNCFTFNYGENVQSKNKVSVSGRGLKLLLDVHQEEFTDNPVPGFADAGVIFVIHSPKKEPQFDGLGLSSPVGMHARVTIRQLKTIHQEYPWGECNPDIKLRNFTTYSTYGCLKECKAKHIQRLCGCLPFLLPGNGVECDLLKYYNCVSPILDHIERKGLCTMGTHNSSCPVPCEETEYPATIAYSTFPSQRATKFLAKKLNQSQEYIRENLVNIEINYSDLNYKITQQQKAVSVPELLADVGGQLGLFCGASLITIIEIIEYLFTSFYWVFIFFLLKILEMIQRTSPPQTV

[2] = target: T1, rBASIC (rat bile acid-sensitive ion channel); assay: oocyte current recording, concentration-response, Hill fit; format: cell-based

`C[C@H](CCC(=O)O)[C@H]1CC[C@H]2[C@@H]3[C@H](O)C[C@@H]4C[C@H](O)CC[C@]4(C)[C@H]3CC[C@]12C` [CDCA] was tested. Which “oocyte current recording, co-application” value [1] did it give?
Its value is “CDCA and UDCA synergistically activate rBASIC”.

With `C[C@H](CCC(=O)O)[C@H]1CC[C@H]2[C@@H]3C[C@H](O)[C@@H]4C[C@H](O)CC[C@]4(C)[C@H]3CC[C@]12C` [HDCA] as the compound, how does the EC50 [2] read?
Its EC50 is 2100 ± 40 µM.

`C[C@H](CCC(=O)O)[C@H]1CC[C@H]2[C@@H]3[C@@H](O)C[C@@H]4C[C@H](O)CC[C@]4(C)[C@H]3CC[C@]12C` [UDCA] was tested. Which EC50 [2] did it give?
The EC50 was 2500 ± 40 µM.
